# In publication PMC10239507, “Development of allosteric and selective CDK2 inhibitors for contraception with negative cooperativity to cyclin binding” (Nature Communications, 2023):
# Assays:
# Assay in all cases: biochemical
# [1] = biological target: T1, 371 kinases (kinase named in each endpoint) (Homo sapiens, UniProt P29597); conditions: TYK2
# T1 construct: purchased Reaction Biology
# [2] = biological target: T2, 371 kinases (kinase named in each endpoint) (Homo sapiens, UniProt P53667); conditions: LIMK1
# T2 construct: purchased Reaction Biology
# [3] = biological target: T3, 371 kinases (kinase named in each endpoint) (Homo sapiens, UniProt O60307); conditions: MAST3
# T3 construct: purchased Reaction Biology
# [4] = biological target: T4, 371 kinases (kinase named in each endpoint) (Homo sapiens, UniProt Q96SB4); conditions: SRPK1
# T4 construct: purchased Reaction Biology
# [5] = biological target: T5, 371 kinases (kinase named in each endpoint) (Homo sapiens, UniProt P43405); conditions: SYK
# T5 construct: purchased Reaction Biology
# [6] = biological target: T6, 371 kinases (kinase named in each endpoint) (Homo sapiens, UniProt Q15418); conditions: RSK1
# T6 construct: purchased Reaction Biology
# [7] = biological target: T7, 371 kinases (kinase named in each endpoint) (Homo sapiens, UniProt O15111); conditions: IKKA/CHUK
# T7 construct: purchased Reaction Biology
# [8] = biological target: T8, 371 kinases (kinase named in each endpoint) (Homo sapiens, UniProt P27361); conditions: ERK1
# T8 construct: purchased Reaction Biology
# [9] = biological target: T9, 371 kinases (kinase named in each endpoint) (Homo sapiens, UniProt Q13177); conditions: PAK2
# T9 construct: purchased Reaction Biology
# [10] = biological target: T10, 371 kinases (kinase named in each endpoint) (Homo sapiens, UniProt Q6PHR2); conditions: ULK3
# T10 construct: purchased Reaction Biology
# [11] = biological target: T11, 371 kinases (kinase named in each endpoint) (Homo sapiens, UniProt P37173); conditions: TGFBR2
# T11 construct: purchased Reaction Biology
# [12] = biological target: T12, 371 kinases (kinase named in each endpoint) (Homo sapiens, UniProt P49137); conditions: MAPKAPK2
# T12 construct: purchased Reaction Biology
# [13] = biological target: T13, 371 kinases (kinase named in each endpoint) (Homo sapiens, UniProt O95835); conditions: LATS1
# T13 construct: purchased Reaction Biology
# [14] = biological target: T14, 371 kinases (kinase named in each endpoint) (Homo sapiens, UniProt Q9NQU5); conditions: PAK6
# T14 construct: purchased Reaction Biology
# [15] = biological target: T15, 371 kinases (kinase named in each endpoint) (Homo sapiens, UniProt P49674); conditions: CK1EPSILON
# T15 construct: purchased Reaction Biology
# [16] = biological target: T16, 371 kinases (kinase named in each endpoint) (Homo sapiens, UniProt O43293); conditions: ZIPK/DAPK3
# T16 construct: purchased Reaction Biology
# [17] = biological target: T17, 371 kinases (kinase named in each endpoint) (Homo sapiens, UniProt P04626); conditions: ERBB2/HER2
# T17 construct: purchased Reaction Biology
# [18] = biological target: T18, 371 kinases (kinase named in each endpoint) (Homo sapiens, UniProt Q9H093); conditions: SNARK/NUAK2
# T18 construct: purchased Reaction Biology
# [19] = biological target: T19, 371 kinases (kinase named in each endpoint) (Homo sapiens, UniProt Q9NYL2); conditions: ZAK/MLTK
# T19 construct: purchased Reaction Biology
# [20] = biological target: T20, 371 kinases (kinase named in each endpoint) (Homo sapiens, UniProt P11309); conditions: PIM1
# T20 construct: purchased Reaction Biology
# [21] = biological target: T21, 371 kinases (kinase named in each endpoint) (Homo sapiens, UniProt Q7KZI7); conditions: MARK2/PAR-1BA
# T21 construct: purchased Reaction Biology
# [22] = biological target: T22, 371 kinases (kinase named in each endpoint) (Homo sapiens, UniProt P11362); conditions: FGFR1
# T22 construct: purchased Reaction Biology
# [23] = biological target: T23, 371 kinases (kinase named in each endpoint) (Homo sapiens, UniProt Q9UEW8); conditions: STK39/STLK3
# T23 construct: purchased Reaction Biology
# [24] = biological target: T24, 371 kinases (kinase named in each endpoint) (Homo sapiens, UniProt Q5TCY1); conditions: TTBK1
# T24 construct: purchased Reaction Biology
# [25] = biological target: T25, 371 kinases (kinase named in each endpoint) (Homo sapiens, UniProt Q9HAZ1); conditions: CLK4
# T25 construct: purchased Reaction Biology
# [26] = biological target: T26, 371 kinases (kinase named in each endpoint) (Homo sapiens, UniProt Q02779); conditions: MLK2/MAP3K10
# T26 construct: purchased Reaction Biology
# [27] = biological target: T27, 371 kinases (kinase named in each endpoint) (Homo sapiens, UniProt P04049); conditions: RAF1
# T27 construct: purchased Reaction Biology
# [28] = biological target: T28, 371 kinases (kinase named in each endpoint) (Homo sapiens, UniProt O14733); conditions: MKK7
# T28 construct: purchased Reaction Biology
# [29] = biological target: T29, 371 kinases (kinase named in each endpoint) (Homo sapiens, UniProt Q13188); conditions: MST2/STK3
# T29 construct: purchased Reaction Biology
# [30] = biological target: T30, 371 kinases (kinase named in each endpoint) (Homo sapiens, UniProt Q15831); conditions: LKB1
# T30 construct: purchased Reaction Biology
# [31] = biological target: T31, 371 kinases (kinase named in each endpoint) (Homo sapiens, UniProt P45985); conditions: MKK4
# T31 construct: purchased Reaction Biology
# [32] = biological target: T32, 371 kinases (kinase named in each endpoint) (Homo sapiens, UniProt Q08881); conditions: ITK
# T32 construct: purchased Reaction Biology
# [33] = biological target: T33, 371 kinases (kinase named in each endpoint) (Homo sapiens, UniProt Q00534)
# T33 construct: purchased Reaction Biology
# [34] = biological target: T34, 371 kinases (kinase named in each endpoint) (Homo sapiens, UniProt Q9Y3S1); conditions: WNK2
# T34 construct: purchased Reaction Biology
# [35] = biological target: T35, 371 kinases (kinase named in each endpoint) (Homo sapiens, UniProt Q13976); conditions: PKG1A
# T35 construct: purchased Reaction Biology
# [36] = biological target: T36, 371 kinases (kinase named in each endpoint) (Homo sapiens, UniProt Q9UPE1); conditions: MSSK1/STK23
# T36 construct: purchased Reaction Biology
# T36 sequence (Q9UPE1 whole entry): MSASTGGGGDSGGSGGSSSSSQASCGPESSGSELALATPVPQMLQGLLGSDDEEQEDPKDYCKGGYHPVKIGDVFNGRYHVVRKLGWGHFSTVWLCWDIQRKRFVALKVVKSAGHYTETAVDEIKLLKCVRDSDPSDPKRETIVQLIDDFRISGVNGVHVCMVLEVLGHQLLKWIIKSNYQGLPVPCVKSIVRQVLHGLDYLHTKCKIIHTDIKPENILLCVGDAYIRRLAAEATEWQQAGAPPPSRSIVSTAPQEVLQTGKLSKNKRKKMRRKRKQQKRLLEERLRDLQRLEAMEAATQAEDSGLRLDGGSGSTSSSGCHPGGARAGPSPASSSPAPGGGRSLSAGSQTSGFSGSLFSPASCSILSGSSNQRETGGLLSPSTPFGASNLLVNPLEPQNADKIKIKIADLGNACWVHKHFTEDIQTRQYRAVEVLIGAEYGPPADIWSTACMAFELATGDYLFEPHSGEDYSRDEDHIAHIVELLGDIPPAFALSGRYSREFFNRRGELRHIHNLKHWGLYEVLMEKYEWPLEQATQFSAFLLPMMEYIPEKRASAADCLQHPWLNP
# T33 sequence (Q00534 whole entry): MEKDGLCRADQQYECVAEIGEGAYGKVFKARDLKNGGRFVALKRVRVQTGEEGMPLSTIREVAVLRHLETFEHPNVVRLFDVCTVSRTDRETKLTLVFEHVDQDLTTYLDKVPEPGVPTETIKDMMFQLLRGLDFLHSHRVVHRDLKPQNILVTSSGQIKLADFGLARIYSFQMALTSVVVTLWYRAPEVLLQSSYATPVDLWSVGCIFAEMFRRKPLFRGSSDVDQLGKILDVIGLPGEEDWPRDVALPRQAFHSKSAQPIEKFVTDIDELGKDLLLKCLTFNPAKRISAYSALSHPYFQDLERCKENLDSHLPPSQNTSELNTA
# T17 sequence (P04626 23-1255): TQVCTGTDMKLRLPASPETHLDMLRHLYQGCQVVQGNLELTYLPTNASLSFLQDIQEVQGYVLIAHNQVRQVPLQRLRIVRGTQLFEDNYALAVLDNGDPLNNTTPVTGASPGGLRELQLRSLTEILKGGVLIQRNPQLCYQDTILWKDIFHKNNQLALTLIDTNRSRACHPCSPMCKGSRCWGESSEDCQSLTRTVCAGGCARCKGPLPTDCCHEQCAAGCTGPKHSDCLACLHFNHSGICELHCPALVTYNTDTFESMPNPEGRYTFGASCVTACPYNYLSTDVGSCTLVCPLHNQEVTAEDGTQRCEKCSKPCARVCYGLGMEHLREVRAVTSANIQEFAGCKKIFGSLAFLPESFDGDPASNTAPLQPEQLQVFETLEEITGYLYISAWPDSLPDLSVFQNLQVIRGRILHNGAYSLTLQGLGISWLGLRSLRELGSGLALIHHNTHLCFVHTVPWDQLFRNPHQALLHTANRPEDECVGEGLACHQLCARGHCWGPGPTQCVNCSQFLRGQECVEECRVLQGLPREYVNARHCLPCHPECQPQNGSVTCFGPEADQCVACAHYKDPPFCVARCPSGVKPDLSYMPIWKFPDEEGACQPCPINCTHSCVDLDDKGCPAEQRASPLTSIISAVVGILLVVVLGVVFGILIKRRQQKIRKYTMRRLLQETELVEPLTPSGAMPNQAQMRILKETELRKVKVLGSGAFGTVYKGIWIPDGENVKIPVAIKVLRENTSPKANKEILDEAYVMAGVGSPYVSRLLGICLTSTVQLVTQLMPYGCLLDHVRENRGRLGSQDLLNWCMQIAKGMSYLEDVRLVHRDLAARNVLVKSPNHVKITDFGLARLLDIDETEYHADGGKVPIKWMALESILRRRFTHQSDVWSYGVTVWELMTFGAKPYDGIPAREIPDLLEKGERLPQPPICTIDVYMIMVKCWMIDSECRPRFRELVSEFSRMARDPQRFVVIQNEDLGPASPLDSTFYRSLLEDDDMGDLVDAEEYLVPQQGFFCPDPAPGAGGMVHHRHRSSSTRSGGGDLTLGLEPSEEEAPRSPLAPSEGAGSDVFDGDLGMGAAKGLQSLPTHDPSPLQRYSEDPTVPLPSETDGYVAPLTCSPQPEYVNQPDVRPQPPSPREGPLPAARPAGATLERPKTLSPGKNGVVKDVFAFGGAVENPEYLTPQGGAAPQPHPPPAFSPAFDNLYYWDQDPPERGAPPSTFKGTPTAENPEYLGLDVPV
# T28 sequence (O14733 whole entry): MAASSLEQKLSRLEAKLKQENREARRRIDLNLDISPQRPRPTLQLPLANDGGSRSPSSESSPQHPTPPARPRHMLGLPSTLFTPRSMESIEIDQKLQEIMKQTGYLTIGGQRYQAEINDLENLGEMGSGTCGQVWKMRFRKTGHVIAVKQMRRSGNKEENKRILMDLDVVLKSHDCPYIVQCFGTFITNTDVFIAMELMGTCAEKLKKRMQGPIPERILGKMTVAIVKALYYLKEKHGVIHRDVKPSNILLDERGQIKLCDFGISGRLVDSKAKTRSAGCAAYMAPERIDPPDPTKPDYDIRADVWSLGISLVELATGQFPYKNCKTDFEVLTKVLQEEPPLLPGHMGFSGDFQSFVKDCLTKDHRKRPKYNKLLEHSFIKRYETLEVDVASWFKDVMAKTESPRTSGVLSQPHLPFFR
# T12 sequence (P49137 whole entry): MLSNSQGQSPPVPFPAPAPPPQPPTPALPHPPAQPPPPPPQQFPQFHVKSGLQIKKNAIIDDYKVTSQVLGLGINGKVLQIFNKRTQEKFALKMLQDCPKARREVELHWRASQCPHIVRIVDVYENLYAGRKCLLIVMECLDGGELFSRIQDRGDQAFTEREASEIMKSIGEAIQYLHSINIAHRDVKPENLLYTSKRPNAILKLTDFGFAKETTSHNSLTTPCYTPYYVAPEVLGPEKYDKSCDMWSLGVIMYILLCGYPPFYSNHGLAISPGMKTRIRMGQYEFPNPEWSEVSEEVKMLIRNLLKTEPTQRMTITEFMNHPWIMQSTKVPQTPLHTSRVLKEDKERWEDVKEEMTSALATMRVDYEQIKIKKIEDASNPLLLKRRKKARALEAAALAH
# T13 sequence (O95835 whole entry): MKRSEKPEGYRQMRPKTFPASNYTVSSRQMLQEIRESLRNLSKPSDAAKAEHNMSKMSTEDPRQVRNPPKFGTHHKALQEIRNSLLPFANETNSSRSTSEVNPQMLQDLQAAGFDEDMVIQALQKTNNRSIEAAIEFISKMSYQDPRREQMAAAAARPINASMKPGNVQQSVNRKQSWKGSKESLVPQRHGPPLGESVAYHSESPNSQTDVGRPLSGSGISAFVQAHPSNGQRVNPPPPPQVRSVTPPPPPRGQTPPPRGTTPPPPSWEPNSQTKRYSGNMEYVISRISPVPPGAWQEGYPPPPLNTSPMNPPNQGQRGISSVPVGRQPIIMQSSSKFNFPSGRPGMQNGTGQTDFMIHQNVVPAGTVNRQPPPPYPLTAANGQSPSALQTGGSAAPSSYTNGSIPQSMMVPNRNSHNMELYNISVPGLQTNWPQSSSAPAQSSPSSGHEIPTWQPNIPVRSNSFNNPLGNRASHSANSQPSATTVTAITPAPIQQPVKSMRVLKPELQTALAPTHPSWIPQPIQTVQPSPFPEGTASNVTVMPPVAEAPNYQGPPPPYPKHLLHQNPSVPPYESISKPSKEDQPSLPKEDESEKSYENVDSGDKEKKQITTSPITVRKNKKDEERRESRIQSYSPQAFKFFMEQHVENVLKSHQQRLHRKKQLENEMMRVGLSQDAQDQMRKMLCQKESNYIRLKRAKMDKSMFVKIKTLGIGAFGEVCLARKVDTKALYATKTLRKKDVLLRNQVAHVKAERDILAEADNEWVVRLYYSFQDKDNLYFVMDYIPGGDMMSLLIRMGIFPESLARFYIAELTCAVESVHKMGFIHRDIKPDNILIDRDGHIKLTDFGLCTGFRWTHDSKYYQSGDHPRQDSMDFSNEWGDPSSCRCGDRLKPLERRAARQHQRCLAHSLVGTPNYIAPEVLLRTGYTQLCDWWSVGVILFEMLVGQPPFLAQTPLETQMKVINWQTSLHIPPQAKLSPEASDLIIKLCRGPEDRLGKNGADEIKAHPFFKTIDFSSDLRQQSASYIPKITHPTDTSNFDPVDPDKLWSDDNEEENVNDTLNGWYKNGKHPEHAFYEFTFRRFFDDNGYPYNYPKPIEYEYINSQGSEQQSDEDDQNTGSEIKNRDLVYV
# T7 sequence (O15111 whole entry): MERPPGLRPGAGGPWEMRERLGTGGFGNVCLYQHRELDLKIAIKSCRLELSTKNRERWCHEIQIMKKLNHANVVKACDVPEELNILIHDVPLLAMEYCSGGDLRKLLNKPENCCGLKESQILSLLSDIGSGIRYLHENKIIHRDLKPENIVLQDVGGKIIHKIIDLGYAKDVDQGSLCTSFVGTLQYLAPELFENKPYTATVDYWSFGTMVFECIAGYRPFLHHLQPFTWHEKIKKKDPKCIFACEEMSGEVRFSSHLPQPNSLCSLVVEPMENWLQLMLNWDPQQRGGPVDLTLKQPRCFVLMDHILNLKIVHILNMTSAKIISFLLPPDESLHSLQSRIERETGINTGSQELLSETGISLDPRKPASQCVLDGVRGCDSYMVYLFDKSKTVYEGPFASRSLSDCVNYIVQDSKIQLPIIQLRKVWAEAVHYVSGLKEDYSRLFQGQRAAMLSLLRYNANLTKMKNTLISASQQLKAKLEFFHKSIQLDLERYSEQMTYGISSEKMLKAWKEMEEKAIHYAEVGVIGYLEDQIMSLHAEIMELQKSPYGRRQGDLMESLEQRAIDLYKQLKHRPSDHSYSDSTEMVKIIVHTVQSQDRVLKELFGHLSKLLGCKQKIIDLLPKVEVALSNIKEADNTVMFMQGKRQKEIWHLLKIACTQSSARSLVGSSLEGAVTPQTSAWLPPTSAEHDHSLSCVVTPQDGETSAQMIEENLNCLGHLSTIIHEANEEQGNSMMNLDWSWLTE
smiles,measurement,setting,value
"O=C(O)c1cc(C(F)(F)F)ccc1NCCc1c[nH]c2cc(Br)ccc12 [Compound 5, 2-((2-(6-Bromo-1H-indol-3-yl)ethyl)amino)−5-(trifluoromethyl)benzoic Acid]",activity at 10 µM,[1],78.1 ± 0.7%
same,activity at 10 µM,[2],84.2%
same,activity at 10 µM,[3],94.9 ± 0.2%
same,activity at 10 µM,[4],91.3 ± 0.5%
same,activity at 10 µM,[5],85.8 ± 1.6%
same,activity at 10 µM,[6],83.1 ± 2.8%
same,activity at 10 µM,[7],83.2 ± 1.4%
same,activity at 10 µM,[8],99.7 ± 0.9%
same,activity at 10 µM,[9],95.6 ± 0.3%
same,activity at 10 µM,[10],89.9 ± 1.4%
same,activity at 10 µM,[11],79.2 ± 1.5%
same,activity at 10 µM,[12],95.2 ± 1.8%
same,activity at 10 µM,[13],93 ± 3.5%
same,activity at 10 µM,[14],244 ± 9%
same,activity at 10 µM,[15],60.1 ± 1.8%
same,activity at 10 µM,[16],74.5 ± 3.3%
same,activity at 10 µM,[17],78 ± 0.2%
same,activity at 10 µM,[18],87.7 ± 2.3%
same,activity at 10 µM,[19],96.9 ± 0.2%
same,activity at 10 µM,[20],40.6 ± 3.2%
same,activity at 10 µM,[21],87.5 ± 0.7%
same,activity at 10 µM,[22],102.6 ± 0.3%
same,activity at 10 µM,[23],113.4 ± 0.1%
same,activity at 10 µM,[24],103 ± 3.1%
same,activity at 10 µM,[25],97.4 ± 0.8%
same,activity at 10 µM,[26],74.8 ± 2.2%
same,activity at 10 µM,[27],97.8 ± 0.2%
same,activity at 10 µM,[28],90.6 ± 0.3%
same,activity at 10 µM,[29],134 ± 0.4%
same,activity at 10 µM,[30],93.7 ± 1.8%
same,activity at 10 µM,[31],115 ± 4.5%
same,activity at 10 µM,[32],127 ± 0.1%
same,activity at 10 µM,[33]; CDK6/CYCLIN D1,87.9 ± 0.1%
same,activity at 10 µM,[33]; CDK6/CYCLIN D2,44.6 ± 0.5%
same,activity at 10 µM,[33]; CDK6/CYCLIN D3,60.9 ± 1.2%
same,activity at 10 µM,[34],109.6 ± 0.2%
same,activity at 10 µM,[35],101 ± 1.8%
same,activity at 10 µM,[36],69.7 ± 3%
